{"source": "patent US20210283211A1", "about": "“COMPOSITIONS AND METHODS OF ALLEVIATING RESISTANCE TO CHEMOTHERAPY” (CITY OF HOPE, priority 2019, published 2021)", "type_in_all_cases": "cell-based, human", "key": {"H2009 cells [1]": {"tested_on": "H2009 cells", "experiment": "Scratch wound healing assay", "procedure": "Scratch wound healing assay. Cells were seeded on a 96-well Image Lock (Essen BioScience, Ann Arbor, Mich., USA) plate to reach 90% confluence by the next day. After cell adherence, 96 uniform wounds were created simultaneously using the WoundMaker (Essen BioScience) tool. Cells were washed once with serum-free medium and replenished with complete medium. To monitor wound healing, the plate was placed in the IncuCyte S3 Live-Cell Analysis System (Essen BioScience) and images were acquired every hour. Data analysis was generated by the IncuCyte software using a set confluence mask to measure relative wound density over time.\nTo discern the effect of knocking down ITGB4 on cell migration, H1993 and H2009 cells were transfected with the control or ITGB4-specific siRNA in 6-well plates and 12 hours post transfection, the cells were trypsinized and reseeded at high density in a 96-well plate. […] While both cell lines transfected with the control siRNA achieved 100% confluency of the wound within 48 hours, H1993 and 2009 cells in which ITGB4 was knocked down reached ˜60% and ˜80% confluency, respectively; neither cell line reached 100% confluency even after 96 h (FIG. 3F). Next the rate of wound closure was estimated. The rate was determined by dividing initial wound width by the time taken to close the wound. […] Similarly, in the case of the H2009 cells, the wound width closure rate dropped from 22 μm/h to about 18 μm/h (FIG. 3G). […] Additionally, up regulation of expression of other integrin β forms in response to ITGB4 knockdown was checked and an increase in the expression of ITGB1, ITGB2, and ITGB3 at mRNA level was found (FIG. 3I). The effect of ITGB3 silencing in the ITGB4 knocked down cells was further tested but no significant difference in their proliferation was found (FIG. 3J)."}, "[2]": {"tested_on": "ITGB4 and PXN expression, γH2AX in H358 cells", "experiment": "Immunoblot after sublethal dose", "settings": "72 hours", "procedure": "West blotting: Cell lysates were prepared with 1×RIPA buffer (MilliporeSigma) and denatured in 1× reducing sample buffer at 95° C. for 5 minutes. Protein samples (15 μg) were run on 4-15% TGX gels (Bio-Rad, Hercules, Calif., USA) and transferred onto nitrocellulose membranes (Bio-Rad). Blots were blocked with 5% non-fat milk in TBS-T for 1 hour at room temperature and probed with primary antibody diluted in 2.5% BSA in TBS-T overnight at 4° C. After three washes with TBS-T, blots were incubated with HRP-conjugated secondary antibodies for 2 hours at room temperature. After three more washes, bands of interest were visualized via chemiluminescence using Western Bright ECL HRP substrate (Advansta, Menlo Park, Calif., USA) and imaged with the ChemiDoc MP imager (Bio-Rad).\nThen a sublethal dose was used to determine the effect of these compounds on ITGB4 and PXN expression and caspase activity (FIG. 9I). […] These eleven compounds were further screened in the cisplatin-resistant cell line H2009. […] Further, carfilzomib was tested in another cisplatin-resistant cell line H1993."}, "H2009 cells [3]": {"tested_on": "H2009 cells", "experiment": "IncuCyte cell proliferation and caspase-3/7 apoptosis assay", "settings": "80 nM, 72 hours, among eleven compounds", "procedure": "Cell proliferation and apoptosis assay. Cell proliferation assays were performed using cell lines stably transfected with NucLight Red Lentivirus (Essen Bioscience) to accurately visualize and count the nucleus of a single cell. Cells were seeded on a 96-well plate and allowed to adhere for 24 hours. Test compounds were added at indicated concentrations. Caspase-3/7 Green Apoptosis Reagent (Essen Bioscience) was also added as a green fluorescent indicator of caspase-3/7-mediated apoptotic activity. To monitor cell proliferation and apoptosis over time, the plate was placed in the IncuCyte S3 Live-Cell Analysis System (Essen BioScience) and images were acquired every 2 hours. Data analysis was generated by the IncuCyte software using a red fluorescence mask to accurately count each cell nucleus and a green fluorescence mask to measure apoptosis over time.\nTo determine whether the inhibition in cell proliferation associated with ITGB4 knockdown was due to enhanced apoptosis or reduced cell division (cytostatic), the Essen Bioscience Caspase-3/7 Green apoptosis assay in live cells was conducted. The NucView™[…], a DNA intercalating dye was used to enable quantification of apoptosis over time. The dye is impermeable and non-toxic to cells but once the cell membrane is permeabilized by caspase-3/7, the dye enters the cell and gets activated due to change in pH leading to the generation of green fluorescence that is then detected in real time and quantified using the IncuCyte System (FIG. 4B).\nTo address this, H1993 and H2009 cells were treated with cisplatin for 3 days and the changes were analyzed by immunoblotting. […] Next, H1993 and H2009 cells were transiently transfected with ITGB4 siRNA and 24 hours post-transfection they were treated with 10 μM cisplatin and cell proliferation and caspase activity were determined. […] However, in response to cisplatin in ITGB4 knockdown cells, the fold change dipped to <1, alluding to a cytotoxic effect (FIG. 4C). […] However, cell death was not due to caspase activation but appeared to be due to cell bursting which is seen in anoikis (FIGS. 3K and 3L)."}}, "note": "“Also recorded” adds a separate entry of the source."}
{"smiles": "CC(C)C[C@H](NC(=O)[C@H](CCc1ccccc1)NC(=O)CN1CCOCC1)C(=O)N[C@@H](Cc1ccccc1)C(=O)N[C@@H](CC(C)C)C(=O)[C@@]1(C)CO1", "note": "[Carfilzomib]", "values": [{"measurement": "wound confluency", "setting": "H2009 cells [1]; 200 nM, untreated >90%", "result": 79, "unit": "%"}, {"measurement": "cell migration / wound healing", "setting": "H2009 cells [1]; sublethal dose (carfilzomib 50-200 nM)", "result": "significant inhibition of wound healing and reduction in wound closure rate; also recorded: dose-dependent inhibition of cell migration"}, {"measurement": "apoptosis, DNA damage (γH2AX) and ITGB4 expression", "setting": "[2]", "result": "induced apoptosis and caused DNA damage"}, {"measurement": "inhibitory effect in cell proliferation", "setting": "H2009 cells [3]", "result": "greatest inhibitory effect in cell proliferation"}]}
